The target in assay [1] is T1, Adrenergic receptor alpha-1 (Rattus norvegicus, UniProt P15823+P23944+P43140).
T1 sequence (P15823 whole entry): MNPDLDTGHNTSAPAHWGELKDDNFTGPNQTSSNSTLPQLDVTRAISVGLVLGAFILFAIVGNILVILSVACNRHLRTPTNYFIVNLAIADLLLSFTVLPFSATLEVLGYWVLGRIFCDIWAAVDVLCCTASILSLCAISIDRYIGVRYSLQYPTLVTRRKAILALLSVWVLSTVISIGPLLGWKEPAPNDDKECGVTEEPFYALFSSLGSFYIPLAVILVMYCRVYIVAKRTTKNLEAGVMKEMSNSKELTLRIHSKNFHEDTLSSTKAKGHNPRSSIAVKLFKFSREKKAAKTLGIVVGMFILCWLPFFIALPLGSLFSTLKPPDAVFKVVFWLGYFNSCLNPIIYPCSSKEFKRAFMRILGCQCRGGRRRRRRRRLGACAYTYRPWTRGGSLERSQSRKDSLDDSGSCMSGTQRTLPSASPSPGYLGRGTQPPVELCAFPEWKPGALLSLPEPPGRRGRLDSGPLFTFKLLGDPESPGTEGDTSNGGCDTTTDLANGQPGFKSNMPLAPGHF
T1 sequence (P23944 whole entry): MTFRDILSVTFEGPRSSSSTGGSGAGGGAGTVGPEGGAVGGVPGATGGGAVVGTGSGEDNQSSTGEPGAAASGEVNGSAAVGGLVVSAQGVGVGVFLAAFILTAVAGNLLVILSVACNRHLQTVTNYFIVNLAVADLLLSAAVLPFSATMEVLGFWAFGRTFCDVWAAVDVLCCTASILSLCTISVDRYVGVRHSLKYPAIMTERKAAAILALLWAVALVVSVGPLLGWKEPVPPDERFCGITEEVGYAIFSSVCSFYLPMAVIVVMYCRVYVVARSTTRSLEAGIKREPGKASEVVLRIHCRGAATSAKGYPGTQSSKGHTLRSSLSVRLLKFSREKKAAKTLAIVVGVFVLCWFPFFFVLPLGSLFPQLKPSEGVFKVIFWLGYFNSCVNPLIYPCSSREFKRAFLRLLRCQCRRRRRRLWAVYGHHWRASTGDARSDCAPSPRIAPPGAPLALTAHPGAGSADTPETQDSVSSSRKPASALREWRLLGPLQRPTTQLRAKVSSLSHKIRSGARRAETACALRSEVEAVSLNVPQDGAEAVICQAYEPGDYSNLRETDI
T1 sequence (P43140 whole entry): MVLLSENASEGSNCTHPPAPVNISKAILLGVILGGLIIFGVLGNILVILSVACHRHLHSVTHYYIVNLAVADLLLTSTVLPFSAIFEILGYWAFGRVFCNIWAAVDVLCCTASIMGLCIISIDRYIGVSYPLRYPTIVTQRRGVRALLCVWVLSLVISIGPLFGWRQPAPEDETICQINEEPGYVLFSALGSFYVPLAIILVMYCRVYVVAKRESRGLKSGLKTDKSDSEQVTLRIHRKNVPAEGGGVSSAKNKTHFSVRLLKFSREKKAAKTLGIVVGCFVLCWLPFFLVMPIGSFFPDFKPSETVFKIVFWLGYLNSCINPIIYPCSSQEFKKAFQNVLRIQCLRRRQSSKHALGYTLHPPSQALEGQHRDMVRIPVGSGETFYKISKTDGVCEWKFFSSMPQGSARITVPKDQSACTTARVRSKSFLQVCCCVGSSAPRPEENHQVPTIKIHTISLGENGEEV
Briefly: Binding affinity against alpha-1 adrenergic receptor by measuring displacement of [3H]prazosin from rat brain cortex membranes (in vitro). The class given is cell membranes, Membrane.

For assay [2], the system named is Rattus norvegicus. Nature of the assay: Blood pressure lowering activity in spontaneously hypertensive rats (SHR) after 6 hours of administration (iv) of dose of 1.0 mg/kg; Did not last more than 1/2 hr […]. Further details: dose 1 mg/kg. The class given is functional, organism-based.
Assay [3] relates to Rattus norvegicus. Nature of the assay: Blood pressure lowering activity in spontaneously hypertensive rats (SHR) after 1 hour of administration (iv) of dose of 1.0 mg/kg; Did not last more than 1/2 hr […]. The class given is functional, organism-based. Set-up: dose 1 mg/kg.
Assay [4] has as its target T2, Adrenergic receptor alpha-2 (Rattus norvegicus, UniProt P22086+P19328+P22909).
T2 sequence (P22086 whole entry): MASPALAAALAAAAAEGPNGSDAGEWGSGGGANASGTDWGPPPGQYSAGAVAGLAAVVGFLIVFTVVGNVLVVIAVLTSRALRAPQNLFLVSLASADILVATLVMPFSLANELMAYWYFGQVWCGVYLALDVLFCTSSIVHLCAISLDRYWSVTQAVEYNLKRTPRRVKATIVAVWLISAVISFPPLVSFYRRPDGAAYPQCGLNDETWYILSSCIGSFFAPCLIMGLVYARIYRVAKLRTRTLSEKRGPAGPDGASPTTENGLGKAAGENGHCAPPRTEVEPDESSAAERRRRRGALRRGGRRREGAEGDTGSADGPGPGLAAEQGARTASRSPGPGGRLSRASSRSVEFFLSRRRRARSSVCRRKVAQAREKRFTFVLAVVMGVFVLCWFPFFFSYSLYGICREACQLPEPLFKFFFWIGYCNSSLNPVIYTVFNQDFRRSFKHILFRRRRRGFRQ
T2 sequence (P19328 whole entry): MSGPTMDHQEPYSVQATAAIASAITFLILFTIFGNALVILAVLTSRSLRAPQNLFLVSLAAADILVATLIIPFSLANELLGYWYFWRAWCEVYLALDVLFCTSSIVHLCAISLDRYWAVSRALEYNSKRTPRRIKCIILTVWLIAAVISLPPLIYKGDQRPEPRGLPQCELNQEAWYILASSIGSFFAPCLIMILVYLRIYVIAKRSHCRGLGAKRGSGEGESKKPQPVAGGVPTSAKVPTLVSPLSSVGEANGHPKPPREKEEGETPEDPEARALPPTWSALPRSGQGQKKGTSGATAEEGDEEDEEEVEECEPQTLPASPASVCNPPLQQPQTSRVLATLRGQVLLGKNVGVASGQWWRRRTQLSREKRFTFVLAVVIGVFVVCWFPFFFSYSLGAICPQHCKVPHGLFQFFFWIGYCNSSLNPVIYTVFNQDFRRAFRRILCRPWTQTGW
T2 sequence (P22909 whole entry): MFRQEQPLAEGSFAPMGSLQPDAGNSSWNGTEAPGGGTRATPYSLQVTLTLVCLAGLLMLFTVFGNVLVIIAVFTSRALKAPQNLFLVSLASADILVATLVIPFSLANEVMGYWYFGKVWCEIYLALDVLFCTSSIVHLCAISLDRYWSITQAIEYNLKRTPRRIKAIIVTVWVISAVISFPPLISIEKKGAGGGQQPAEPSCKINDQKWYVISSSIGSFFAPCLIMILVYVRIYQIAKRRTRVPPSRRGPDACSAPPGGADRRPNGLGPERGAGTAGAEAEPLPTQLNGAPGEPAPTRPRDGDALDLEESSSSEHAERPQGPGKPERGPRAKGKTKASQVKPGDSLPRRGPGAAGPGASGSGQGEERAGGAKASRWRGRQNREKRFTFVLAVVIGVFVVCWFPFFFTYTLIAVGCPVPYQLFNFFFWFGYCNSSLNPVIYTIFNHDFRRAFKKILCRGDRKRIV
Briefly: Binding affinity against alpha-2 adrenergic receptor by measuring displacement of [3H]clonidine from rat brain cortex membranes (in vitro). The class given is cell membranes, Membrane. For orientation: Displacement assays read how much labelled ligand stays bound in the presence of the test substance.

Assay [5] concerns Rattus norvegicus. Nature of the assay: Blood pressure lowering activity in spontaneously hypertensive rats (SHR) after 1 hour of administration (iv) of dose of 4.0 mg/kg; Did not last more than 1/2 hr […]. The class given is functional, organism-based. Further details: dose 4 mg/kg.
The test system of assay [6] is Rattus norvegicus. Briefly: Blood pressure lowering activity in spontaneously hypertensive rats (SHR) after 6 hours of administration (iv) of dose of 4.0 mg/kg; Did not last more than 1/2 hr […]. The class given is functional, organism-based. Further details: dose 4 mg/kg.
Assay [7] deals with Rattus norvegicus. Briefly: Blood pressure lowering activity in spontaneously hypertensive rats (SHR) after 6 hours of administration (iv) of dose of 0.5 mg/kg […]. It is filed as functional.
The test system of assay [8] is Rattus norvegicus. Briefly: Blood pressure lowering activity in spontaneously hypertensive rats (SHR) after 1 hour of administration (iv) of dose of 0.5 mg/kg […]. It is filed as functional.

The source made the active and inactive calls. The calls are words filed in the database; no cut-off is given here.

From ChEMBL document CHEMBL1126751, “Studies on quinazolines. 5. 2,3-dihydroimidazo[1,2-c]quinazoline derivatives: a novel class of potent and selective alpha 1-adrenoceptor antagonists and antihypertensive agents” (J Med Chem, 1993) come the findings set out here.

Consider `COc1ccc(N2CCN(CC3CN=C4c5ccccc5N=C(SC)N43)CC2)cc1` (centres undefined), for which the Ki in assay [1] is over 100 nM. Moreover, the MBP result in assay [2] and in assay [3] was “inactive” each time.

Take `COc1cccc(N2CCN(CC3CN=C4c5ccccc5N=C(SC)N43)CC2)c1` (centres undefined): the Ki was determined as 8356 nM in assay [4] and 48.8 nM in assay [1]. The MBP entry in assay [2] and in assay [3] was “inactive” in each case.

As to `O=C1Nc2ccccc2C2=NC(CN3CCN(c4ccc(F)cc4)CC3)CN12` (centres undefined), the Ki was determined as 391 nM in assay [4] and 14.4 nM in assay [1]. Further, the MBP entry in assay [5] is “inactive”.

Take `COc1ccc(N2CCN(CC3CN=C4c5ccccc5NC(=O)N43)CC2)cc1` (centres undefined): the Ki in assay [1] is over 50 nM. In addition, the MBP result in assay [6] and in assay [5] was “inactive” in each case.

With `CSC1=Nc2ccccc2C2=NCC(CN3CCN(c4ccccc4Cl)CC3)N12` (centres undefined), the Ki in assay [4] amounted to 223 nM; in assay [1] it was 0.34 nM. Besides, the MBP entry in assay [2] and in assay [3] was “inactive” throughout.

With `O=C1Nc2ccccc2C2=NCC(CN3CCN(c4ccccc4)CC3)N12` (centres undefined), the Ki is reported as 962 nM in assay [4] and 1.7 nM in assay [1].

For the compound `CN1C(=O)N2CC(CN3CCN(c4ccccc4Cl)CC3)N=C2c2ccccc21` (centres undefined), the Ki in assay [4] amounted to 473 nM; in assay [1], 0.68 nM. In addition, the MBP is on record as -22.5 mmHg in assay [7] and -27.5 mmHg in assay [8].

`CSC1=Nc2ccccc2C2=NCC(CN3CCN(c4ccccc4)CC3)N12` (centres undefined): the Ki in assay [1] is on record as over 10 nM. The MBP entry in assay [2] and in assay [3] was “inactive” each time.

Turning to `O=C1Nc2ccccc2C2=NC(CN3CCN(c4ccccn4)CC3)CN12` (centres undefined), in assay [1], the inhibitory constant (Ki) was 95.9 nM. The MBP result in assay [6] and in assay [5] was “inactive” each time.

On to `O=C1Nc2ccccc2C2=NCC(CN3CCN(c4ccccc4Cl)CC3)N12` (centres undefined), for which the Ki in assay [4] was determined as 387 nM; in assay [1], 0.58 nM. The MBP is -15 mmHg in assay [7] and -14.6 mmHg in assay [8].

In assay [1], `COc1cccc(N2CCN(CC3CN=C4c5ccccc5N(C)C(=O)N43)CC2)c1` (centres undefined) registered a Ki of 19.4 nM. Besides, the MBP result in assay [6] and in assay [5] was “inactive” throughout.

On to `COc1ccccc1N1CCN(CC2CN3C(=O)N(C)c4ccccc4C3=N2)CC1` (centres undefined), for which the Ki was found to be 1740 nM in assay [4] and 0.37 nM in assay [1]. In addition, the MBP is recorded as -28.4 mmHg in assay [7] and -38.4 mmHg in assay [8].

As to `COc1ccccc1N1CCN(CC2CN=C3c4ccccc4N(C)C(=O)N32)CC1` (centres undefined), the figures for the Ki in assay [4] and in assay [1] were 1419 nM and 0.36 nM, respectively. In addition, the MBP was -28.3 mmHg in assay [7] and -32.5 mmHg in assay [8].

With `O=C1Nc2ccccc2C2=NC(CNC3CCN(Cc4ccccc4)CC3)CN12` (centres undefined), the inhibition constant (Ki) in assay [1] is 586 nM. Also, the MBP entry in assay [6] and in assay [5] was “inactive” throughout.

The compound `O=C1Nc2ccccc2C2=NC(CN3CCC4(CCCCC4)CC3)CN12` (centres undefined) yielded a Ki in assay [1] of 251.2 nM. Moreover, the MBP result in assay [6] and in assay [5] was “inactive” each time.

`COC1=Nc2ccccc2C2=NCC(CN3CCN(c4cccc(OC)c4)CC3)N12` (centres undefined): the Ki in assay [1] was over 100 nM. For the same compound, the MBP result in assay [6] and in assay [5] was “inactive” throughout.

The compound `COC1=Nc2ccccc2C2=NCC(CN3CCN(c4ccc(OC)cc4)CC3)N12` (centres undefined) returned a Ki in assay [1] of over 100 nM. Further, the MBP entry in assay [6] and in assay [5] was “inactive” throughout.

Consider `COC1=Nc2ccccc2C2=NCC(CN3CCN(c4ccccc4)CC3)N12` (centres undefined), for which the Ki stood at 952 nM in assay [4] and 1.35 nM in assay [1]. Further, the MBP result in assay [2] and in assay [3] was “inactive” each time.

Take `COc1cccc(N2CCN(CC3CN=C4c5ccccc5NC(=O)N43)CC2)c1` (centres undefined): the Ki is given as 302 nM in assay [4] and 5.76 nM in assay [1]. Besides, the MBP entry in assay [6] and in assay [5] was “inactive” in each case.

What is called Ki is the equilibrium dissociation constant of an inhibitor or competing ligand from its target.
